Data published in PubChem BioAssay (NCI).
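Exposure lasted 48 hours, with cells grown in 96-well plates and compounds tested at five concentrations. GI50 is the concentration that inhibits growth by half. Definition used: TGI = concentration required for complete inhibition of growth.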

Experiments:
Experiment in all cases: NCI-60 cell line screen, 48 h
[1] = test system: RPMI-8226 leukemia
[2] = test system: NCI-H460 lung
[3] = test system: SF-268 CNS
[4] = test system: HOP-62 NSCLC
[5] = test system: K-562 leukemia
[6] = test system: HS 578T breast
[7] = test system: MALME-3M melanoma
[8] = test system: OVCAR-4 ovarian
[9] = test system: ACHN renal
[10] = test system: EKVX NSCLC
[11] = test system: HL-60(TB) leukemia
[12] = test system: 786-0 renal
[13] = test system: U251 CNS
[14] = test system: LOX IMVI melanoma
[15] = test system: NCI/ADR-RES ovarian
[16] = test system: RXF 393 renal
[17] = test system: MDA-MB-231 breast
[18] = test system: HCC-2998 colon
[19] = test system: NCI-H522 lung
[20] = test system: SF-295 CNS
[21] = test system: MDA-MB-435
[22] = test system: HOP-92 NSCLC
[23] = test system: SN12C renal
[24] = test system: HCT-15 colon
[25] = test system: COLO 205 colon
[26] = test system: CAKI-1 renal
[27] = test system: UACC-257 melanoma
[28] = test system: KM12 colon
[29] = test system: SW-620 colon
[30] = test system: BT-549 breast
[31] = test system: CCRF-CEM leukemia
[32] = test system: MOLT-4 leukemia
[33] = test system: OVCAR-8 ovarian
[34] = test system: MCF7 breast
[35] = test system: HT29 colon
[36] = test system: SK-MEL-5 melanoma
[37] = test system: IGROV1 ovarian
[38] = test system: SR leukemia
[39] = test system: NCI-H226 lung
[40] = test system: M14 melanoma
[41] = test system: SK-MEL-2 melanoma
[42] = test system: UO-31 renal
[43] = test system: A498 renal
[44] = test system: UACC-62 melanoma
[45] = test system: HCT-116 colon
[46] = test system: A549 NSCLC
[47] = test system: OVCAR-3 ovarian
[48] = test system: NCI-H23 lung
[49] = test system: SNB-19 CNS
[50] = test system: SK-OV-3 ovarian
[51] = test system: SF-539 CNS
[52] = test system: SNB-75 CNS
[53] = test system: OVCAR-5 ovarian
[54] = test system: TK-10 renal
[55] = test system: T-47D breast
[56] = test system: SK-MEL-28 melanoma
[57] = test system: DU-145 prostate
[58] = test system: PC-3 prostate

**Q.** CCNCCCn1c2c(c3cc(OC)c(OC)cc3c1=O)C(=O)c1cc(OC)cnc1-2 was tested. Which GI50 [1] did it give?
**A.** 440 nM

**Q.** What about the TGI [1] of the same compound?
**A.** 4860 nM

**Q.** And the GI50 [2]?
**A.** 153 nM

**Q.** And the TGI [2]?
**A.** 5110 nM

**Q.** What about the GI50 [3] of the same compound?
**A.** 765 nM

**Q.** What about the TGI [3] of the same compound?
**A.** > 63100 nM

**Q.** And the GI50 [4]?
**A.** 213 nM

**Q.** What about the TGI [4] of the same compound?
**A.** 2640 nM

**Q.** And the GI50 [5]?
**A.** 256 nM

**Q.** And the TGI [5]?
**A.** 22900 nM

**Q.** What about the GI50 [6] of the same compound?
**A.** > 43900 nM

**Q.** And the TGI [6]?
**A.** > 70300 nM

**Q.** What about the GI50 [7] of the same compound?
**A.** 10900 nM

**Q.** What about the TGI [7] of the same compound?
**A.** 36600 nM

**Q.** What about the GI50 [8] of the same compound?
**A.** 2560 nM

**Q.** And the TGI [8]?
**A.** 18700 nM

**Q.** And the GI50 [9]?
**A.** 341 nM

**Q.** And the TGI [9]?
**A.** 29300 nM

**Q.** What about the GI50 [10] of the same compound?
**A.** 15700 nM

**Q.** And the TGI [10]?
**A.** > 58600 nM

**Q.** And the GI50 [11]?
**A.** 1040 nM

**Q.** What about the TGI [11] of the same compound?
**A.** 11800 nM

**Q.** What about the GI50 [12] of the same compound?
**A.** 718 nM

**Q.** And the TGI [12]?
**A.** 6400 nM

**Q.** And the GI50 [13]?
**A.** 267 nM

**Q.** And the TGI [13]?
**A.** 9160 nM

**Q.** What about the GI50 [14] of the same compound?
**A.** 313 nM

**Q.** What about the TGI [14] of the same compound?
**A.** 2320 nM

**Q.** What about the GI50 [15] of the same compound?
**A.** 1040 nM

**Q.** What about the TGI [15] of the same compound?
**A.** 27200 nM

**Q.** And the GI50 [16]?
**A.** 1030 nM

**Q.** And the TGI [16]?
**A.** 4770 nM

**Q.** What about the GI50 [17] of the same compound?
**A.** 2660 nM

**Q.** And the TGI [17]?
**A.** 20300 nM

**Q.** And the GI50 [18]?
**A.** 1670 nM

**Q.** And the TGI [18]?
**A.** 29500 nM

**Q.** And the GI50 [19]?
**A.** 197 nM

**Q.** And the TGI [19]?
**A.** 19600 nM

**Q.** And the GI50 [20]?
**A.** 159 nM

**Q.** What about the TGI [20] of the same compound?
**A.** 11200 nM

**Q.** And the GI50 [21]?
**A.** 1990 nM

**Q.** What about the TGI [21] of the same compound?
**A.** > 55600 nM

**Q.** What about the GI50 [22] of the same compound?
**A.** 4030 nM

**Q.** And the TGI [22]?
**A.** > 60300 nM

**Q.** What about the GI50 [23] of the same compound?
**A.** 837 nM

**Q.** What about the TGI [23] of the same compound?
**A.** > 51400 nM

**Q.** And the GI50 [24]?
**A.** 1390 nM

**Q.** What about the TGI [24] of the same compound?
**A.** 19700 nM

**Q.** And the GI50 [25]?
**A.** 1380 nM

**Q.** And the TGI [25]?
**A.** > 53500 nM

**Q.** What about the GI50 [26] of the same compound?
**A.** 339 nM

**Q.** And the TGI [26]?
**A.** > 50000 nM

**Q.** What about the GI50 [27] of the same compound?
**A.** 1980 nM

**Q.** What about the TGI [27] of the same compound?
**A.** > 55000 nM

**Q.** And the GI50 [28]?
**A.** 3330 nM

**Q.** And the TGI [28]?
**A.** 50000 nM

**Q.** What about the GI50 [29] of the same compound?
**A.** 358 nM

**Q.** What about the TGI [29] of the same compound?
**A.** 19300 nM

**Q.** What about the GI50 [30] of the same compound?
**A.** 1320 nM

**Q.** What about the TGI [30] of the same compound?
**A.** 25500 nM

**Q.** What about the GI50 [31] of the same compound?
**A.** 122 nM

**Q.** What about the TGI [31] of the same compound?
**A.** 23300 nM

**Q.** And the GI50 [32]?
**A.** 95.3 nM

**Q.** What about the TGI [32] of the same compound?
**A.** 8080 nM

**Q.** And the GI50 [33]?
**A.** 1200 nM

**Q.** What about the TGI [33] of the same compound?
**A.** 20100 nM

**Q.** And the GI50 [34]?
**A.** 120 nM

**Q.** What about the TGI [34] of the same compound?
**A.** 13000 nM

**Q.** And the GI50 [35]?
**A.** 462 nM

**Q.** And the TGI [35]?
**A.** 2770 nM

**Q.** What about the GI50 [36] of the same compound?
**A.** 794 nM

**Q.** What about the TGI [36] of the same compound?
**A.** 3300 nM

**Q.** And the GI50 [37]?
**A.** 1020 nM

**Q.** What about the TGI [37] of the same compound?
**A.** > 52800 nM

**Q.** What about the GI50 [38] of the same compound?
**A.** 68.5 nM

**Q.** What about the TGI [38] of the same compound?
**A.** 3290 nM

**Q.** And the GI50 [39]?
**A.** 1280 nM

**Q.** What about the TGI [39] of the same compound?
**A.** > 35800 nM

**Q.** And the GI50 [40]?
**A.** 517 nM

**Q.** What about the TGI [40] of the same compound?
**A.** 25800 nM

**Q.** And the GI50 [41]?
**A.** > 38900 nM

**Q.** What about the TGI [41] of the same compound?
**A.** > 75900 nM

**Q.** And the GI50 [42]?
**A.** 615 nM

**Q.** What about the TGI [42] of the same compound?
**A.** > 47200 nM

**Q.** And the GI50 [43]?
**A.** 28000 nM

**Q.** And the TGI [43]?
**A.** > 58200 nM

**Q.** And the GI50 [44]?
**A.** 388 nM

**Q.** And the TGI [44]?
**A.** 8210 nM

**Q.** And the GI50 [45]?
**A.** 376 nM

**Q.** What about the TGI [45] of the same compound?
**A.** 6590 nM

**Q.** And the GI50 [46]?
**A.** 2100 nM

**Q.** What about the TGI [46] of the same compound?
**A.** 33800 nM

**Q.** And the GI50 [47]?
**A.** 1400 nM

**Q.** What about the TGI [47] of the same compound?
**A.** 18700 nM

**Q.** And the GI50 [48]?
**A.** 736 nM

**Q.** And the TGI [48]?
**A.** 7180 nM

**Q.** And the GI50 [49]?
**A.** 529 nM

**Q.** What about the TGI [49] of the same compound?
**A.** > 51300 nM

**Q.** And the GI50 [50]?
**A.** 471 nM

**Q.** What about the TGI [50] of the same compound?
**A.** 2060 nM

**Q.** And the GI50 [51]?
**A.** 432 nM

**Q.** What about the TGI [51] of the same compound?
**A.** 2140 nM

**Q.** And the GI50 [52]?
**A.** 474 nM

**Q.** What about the TGI [52] of the same compound?
**A.** 3450 nM

**Q.** And the GI50 [53]?
**A.** 3890 nM

**Q.** What about the TGI [53] of the same compound?
**A.** 35100 nM

**Q.** What about the GI50 [54] of the same compound?
**A.** > 50400 nM

**Q.** What about the TGI [54] of the same compound?
**A.** > 66400 nM

**Q.** And the GI50 [55]?
**A.** 711 nM

**Q.** What about the TGI [55] of the same compound?
**A.** > 100000 nM

**Q.** What about the GI50 [56] of the same compound?
**A.** 48500 nM

**Q.** And the TGI [56]?
**A.** > 63100 nM

**Q.** What about the GI50 [57] of the same compound?
**A.** 639 nM

**Q.** What about the TGI [57] of the same compound?
**A.** 15000 nM

**Q.** And the GI50 [58]?
**A.** 1840 nM

**Q.** And the TGI [58]?
**A.** 26800 nM
